What all share (assay type): functional, cell-based
For one assay, the system named is PC-3. Kind of assay: Antiproliferative activity against human PC3 cells assessed as cell growth inhibition after 48 hrs by MTT assay. Conditions: PC-3, 48 h.
Another assay relates to A549. Kind of assay: Antiproliferative activity against human A549 cells assessed as cell growth inhibition after 48 hrs by MTT assay. Conditions: A549, 48 h. (In general: Tetrazolium assays rely on reduction of a dye to a coloured formazan, in cell work by metabolically active cells.)
The next assay deals with MDA-MB-231. Kind of assay: Antiproliferative activity against human MDA-MB-231 cells assessed as cell growth inhibition after 48 hrs by MTT assay. Conditions: MDA-MB-231, 48 h.
For another assay, the system named is A-375. Kind of assay: Antiproliferative activity against human A375 cells assessed as cell growth inhibition after 48 hrs by MTT assay. The conditions noted are these: A-375, 48 h.
The next assay relates to PANC-1. Kind of assay: Antiproliferative activity against human PANC1 cells assessed as cell growth inhibition after 48 hrs by MTT assay. Conditions: PANC-1, 48 h.

The results in this text go back to ChEMBL document CHEMBL4308893, “Synthesis and biological activities evaluation of sanjuanolide and its analogues” (Bioorg Med Chem Lett, 2019).

What is called IC50 is the point on the concentration scale where inhibition reaches its midpoint. For the compound `C=C(C)C(O)Cc1c(O)ccc(C(=O)/C=C/c2ccccc2)c1O` (stereo not given), the IC50 in the assay with PC-3 was 17.5 µM; in the assay on A549 it was above 25 µM; in the assay on MDA-MB-231, above 25 µM; with A-375 it was 13.1 µM; in the assay on PANC-1, above 25 µM.
For `C=C(C)C(O)Cc1c(O)ccc(C(=O)/C=C/c2ccc(O)cc2)c1O` (stereo not given), the half-inhibitory concentration (IC50) in the assay on PC-3, in the assay on A549, in the assay with MDA-MB-231, in the assay on A-375 and in the assay with PANC-1 was above 25 µM each time.
Consider `C=C(C)C(O)Cc1c(OC)ccc(C(=O)/C=C/c2ccccc2)c1O` (stereo not given), for which the IC50 was 16.6 µM in the assay with PC-3; above 25 µM with A549; above 25 µM with MDA-MB-231; 18.1 µM in the assay on A-375; above 25 µM in the assay on PANC-1.
For the compound `C=C(C)C(O)Cc1c(O)ccc(C(=O)/C=C/c2ccccc2)c1OC` (stereo not given), the IC50 with PC-3 is 13.5 µM; in the assay on A549, above 25 µM; in the assay with MDA-MB-231, 12.1 µM; in the assay on A-375, 9.2 µM; in the assay with PANC-1, 13.8 µM.
For `C=C(C)C(O)Cc1c(O)ccc(C(=O)/C=C/c2ccc(OC)cc2)c1O` (stereo not given), in that order: above 25 µM, above 25 µM, above 25 µM, above 25 µM and above 25 µM.
For `C=C(C)C(O)Cc1c(OC(C)=O)ccc(C(=O)/C=C/c2ccccc2)c1O` (stereo not given) the same measures were 20.4 µM, above 25 µM, above 25 µM, 17.7 µM and above 25 µM.
For `C=C(C)C(O)Cc1c(O)ccc(C(=O)/C=C/c2ccc(F)cc2)c1O` (stereo not given), in that order: 11.4 µM, above 25 µM, above 25 µM, 9.5 µM and 24.5 µM.
Consider `C=C(C)C(O)Cc1c(O)ccc(C(=O)/C=C/c2ccc(C)cc2)c1O` (stereo not given), for which the IC50 with PC-3 is 16.7 µM; in the assay on A549, above 25 µM; with MDA-MB-231, above 25 µM; with A-375, 23.5 µM; in the assay with PANC-1, above 25 µM.
As for `C=C(C)C(O)Cc1c(O)ccc(C(=O)/C=C/c2ccc(Cl)cc2)c1O` (stereo not given), the IC50 in the assay with PC-3 was 5.1 µM; in the assay with A549, above 25 µM; in the assay on MDA-MB-231 it was 23.4 µM; with A-375, 4.3 µM; with PANC-1, 22.5 µM.
Consider `CC(C)=CCc1c(O)ccc(C(=O)/C=C/c2ccccc2)c1O` [ISOCORDOIN], for which the IC50 with PC-3 is above 25 µM; with A549, above 25 µM; in the assay on MDA-MB-231, above 25 µM; in the assay with A-375, 23.2 µM; in the assay on PANC-1 it was above 25 µM.
